# In ChEMBL document CHEMBL3112450, “Synthesis and in vitro antitumor evaluation of primary amine substituted quinazoline linked benzimidazole” (Bioorg Med Chem Lett, 2014):
# Key:
# Format in all cases: functional
# [1] = Cytotoxicity against human UO31 cells assessed as cell growth at 10^-8 M after 48 hrs by SRB assay; settings: UO-31, 48 h, read-out: Activity
# [2] = tested on: HT-29; assay: Cytotoxicity against human HT-29 cells assessed as cell growth at 10^-5 M after 48 hrs by SRB assay; settings: HT-29, 48 h, read-out: Activity
# [3] = tested on: HL-60(TB); assay: Cytotoxicity against human HL-60(TB) cells assessed as cell growth at 10^-8 M after 48 hrs by SRB assay; settings: HL-60, 48 h, read-out: Activity
# [4] = tested on: HOP-92; assay: Cytotoxicity against human HOP92 cells assessed as cell growth at 10^-8 M after 48 hrs by SRB assay; settings: HOP-92, 48 h, read-out: Activity
# [5] = tested on: MOLT-4; assay: Cytotoxicity against human MOLT4 cells assessed as cell growth at 10^-4 M after 48 hrs by SRB assay; settings: MOLT-4, 48 h, read-out: Activity
# [6] = tested on: MOLT-4; assay: Cytotoxicity against human MOLT4 cells assessed as cell growth at 10^-6 M after 48 hrs by SRB assay; settings: MOLT-4, 48 h, read-out: Activity
# [7] = tested on: DU-145; assay: Cytotoxicity against human DU145 cells assessed as cell growth at 10^-5 M after 48 hrs by SRB assay; settings: DU-145, 48 h, read-out: Activity
# [8] = tested on: NCI-H522; assay: Cytotoxicity against human NCI-H522 cells assessed as cell growth at 10^-5 M after 48 hrs by SRB assay; settings: NCI-H522, 48 h, read-out: Activity
# [9] = tested on: NCI-H522; assay: Cytotoxicity against human NCI-H522 cells after 48 hrs by SRB assay; settings: NCI-H522, 48 h
# [10] = tested on: Malme-3M; assay: Cytotoxicity against human MALME-3M cells assessed as cell growth at 10^-5 M after 48 hrs by SRB assay; settings: read-out: Activity
# [11] = Cytotoxicity against human UO31 cells assessed as cell growth at 10^-5 M after 48 hrs by SRB assay; settings: UO-31, 48 h, read-out: Activity
# [12] = tested on: A498; assay: Cytotoxicity against human A498 cells assessed as cell growth at 10^-7 M after 48 hrs by SRB assay; settings: A498, 48 h, read-out: Activity
# [13] = tested on: SW-620; assay: Cytotoxicity against human SW620 cells assessed as cell growth at 10^-5 M after 48 hrs by SRB assay; settings: SW-620, 48 h, read-out: Activity
# [14] = Cytotoxicity against human Hs578T cells assessed as cell growth at 10^-5 M after 48 hrs by SRB assay; settings: Hs-578T, read-out: Activity
# [15] = Cytotoxicity against human OVCAR4 cells assessed as cell growth at 10^-5 M after 48 hrs by SRB assay; settings: OVCAR-4, 48 h, read-out: Activity
# [16] = tested on: K562; assay: Cytotoxicity against human K562 cells assessed as cell growth at 10^-5 M after 48 hrs by SRB assay; settings: K562, 48 h, read-out: Activity
# [17] = tested on: HOP-62; assay: Cytotoxicity against human HOP62 cells assessed as cell growth at 10^-5 M after 48 hrs by SRB assay; settings: HOP-62, 48 h, read-out: Activity
# [18] = tested on: T47D; assay: Cytotoxicity against human T47D cells assessed as cell growth at 10^-5 M after 48 hrs by SRB assay; settings: read-out: Activity
# [19] = tested on: M14; assay: Cytotoxicity against human M14 cells assessed as cell growth at 10^-5 M after 48 hrs by SRB assay; settings: M14, 48 h, read-out: Activity
# [20] = tested on: NCI-H460; assay: Cytotoxicity against human NCI-H460 cells assessed as cell growth at 10^-5 M after 48 hrs by SRB assay; settings: NCI-H460, 48 h, read-out: Activity
# [21] = Cytotoxicity against human OVCAR5 cells assessed as cell growth at 10^-5 M after 48 hrs by SRB assay; settings: OVCAR-5, 48 h, read-out: Activity
# [22] = tested on: HOP-62; assay: Cytotoxicity against human HOP62 cells after 48 hrs by SRB assay; settings: HOP-62, 48 h
# [23] = tested on: MDA-MB-435; assay: Cytotoxicity against human MDA-MB-435 cells assessed as cell growth at 10^-5 M after 48 hrs by SRB assay; settings: MDA-MB-435, 48 h, read-out: Activity
# [24] = tested on: HL-60(TB); assay: Cytotoxicity against human HL-60(TB) cells assessed as cell growth at 10^-6 M after 48 hrs by SRB assay; settings: HL-60, 48 h, read-out: Activity
# [25] = tested on: A498; assay: Cytotoxicity against human A498 cells assessed as cell growth at 10^-8 M after 48 hrs by SRB assay; settings: A498, 48 h, read-out: Activity
# [26] = tested on: SR; assay: Cytotoxicity against human SR cells assessed as cell growth at 10^-8 M after 48 hrs by SRB assay; settings: read-out: Activity
# [27] = tested on: A549; assay: Cytotoxicity against human A549 cells assessed as cell growth at 10^-5 M after 48 hrs by SRB assay; settings: A549, 48 h, read-out: Activity
# [28] = tested on: SNB-19; assay: Cytotoxicity against human SNB19 cells assessed as cell growth at 10^-5 M after 48 hrs by SRB assay; settings: SNB-19, 48 h, read-out: Activity
# [29] = tested on: 786-0; assay: Cytotoxicity against human 786-0 cells assessed as cell growth at 10^-5 M after 48 hrs by SRB assay; settings: 786-0, 48 h, read-out: Activity
# [30] = tested on: KM12; assay: Cytotoxicity against human KM12 cells assessed as cell growth at 10^-5 M after 48 hrs by SRB assay; settings: KM12, 48 h, read-out: Activity
# [31] = tested on: HT-29; assay: Cytotoxicity against human HT-29 cells assessed as cell growth at 10^-8 M after 48 hrs by SRB assay; settings: HT-29, 48 h, read-out: Activity
# [32] = tested on: CAKI-1; assay: Cytotoxicity against human Caki1 cells assessed as cell growth at 10^-5 M after 48 hrs by SRB assay; settings: CAKI-1, 48 h, read-out: Activity
# [33] = tested on: HL-60(TB); assay: Cytotoxicity against human HL-60(TB) cells assessed as cell growth at 10^-5 M after 48 hrs by SRB assay; settings: HL-60, 48 h, read-out: Activity
# [34] = tested on: MDA-MB-231; assay: Cytotoxicity against human MDA-MB-231 cells assessed as cell growth at 10^-7 M after 48 hrs by SRB assay; settings: MDA-MB-231, 48 h, read-out: Activity
# [35] = Cytotoxicity against human OVCAR5 cells assessed as cell growth at 10^-7 M after 48 hrs by SRB assay; settings: OVCAR-5, 48 h, read-out: Activity
# [36] = tested on: MOLT-4; assay: Cytotoxicity against human MOLT4 cells assessed as cell growth at 10^-5 M after 48 hrs by SRB assay; settings: MOLT-4, 48 h, read-out: Activity
# [37] = tested on: NCI-H460; assay: Cytotoxicity against human NCI-H460 cells after 48 hrs by SRB assay; settings: NCI-H460, 48 h
# [38] = tested on: UACC-62; assay: Cytotoxicity against human UACC62 cells assessed as cell growth at 10^-4 M after 48 hrs by SRB assay; settings: UACC-62, 48 h, read-out: Activity
# [39] = tested on: MDA-MB-468; assay: Cytotoxicity against human MDA-MB-468 cells assessed as cell growth at 10^-4 M after 48 hrs by SRB assay; settings: MDA-MB-468, 48 h, read-out: Activity
# [40] = tested on: M14; assay: Cytotoxicity against human M14 cells assessed as cell growth at 10^-7 M after 48 hrs by SRB assay; settings: M14, 48 h, read-out: Activity
smiles,measurement,setting,value
C=CCn1c(C)nc2cc(Nc3nc(Nc4ccc5nc(C)n(CC=C)c5c4)c4ccccc4n3)ccc21,growth at 0.01 µM,[1],85%
same,growth at 10 µM,[2],-71%
same,growth at 0.01 µM,[3],98%
same,growth at 0.01 µM,[4],85%
same,growth at 100 µM,[5],-18%
same,growth at 1 µM,[6],-23%
same,growth at 10 µM,[7],-100%
same,growth at 10 µM,[8],-94.8%
same,GI50,[9],0.171 µM
same,TGI,[9],0.332 µM
same,growth at 10 µM,[10],-76%
same,growth at 10 µM,[11],-99%
same,growth at 0.1 µM,[12],100%
same,growth at 10 µM,[13],-76.2%
same,growth at 10 µM,[14],-48.1%
same,growth at 10 µM,[15],-100%
same,growth at 10 µM,[16],-67%
same,growth at 10 µM,[17],-99.5%
same,growth at 10 µM,[18],-60.4%
same,growth at 10 µM,[19],-88%
same,growth at 10 µM,[20],-84.2%
same,growth at 10 µM,[21],-98%
same,GI50,[22],0.232 µM
same,TGI,[22],0.552 µM
same,growth at 10 µM,[23],-92%
same,growth at 1 µM,[24],90%
same,growth at 0.01 µM,[25],101%
same,growth at 0.01 µM,[26],95%
same,growth at 10 µM,[27],-67.1%
same,growth at 10 µM,[28],-75%
same,growth at 10 µM,[29],-80%
same,growth at 10 µM,[30],-100%
same,growth at 0.01 µM,[31],103%
same,growth at 10 µM,[32],-95%
same,growth at 10 µM,[33],-70%
same,growth at 0.1 µM,[34],101%
same,growth at 0.1 µM,[35],95%
same,growth at 10 µM,[36],-29%
same,GI50,[37],0.22 µM
same,growth at 100 µM,[38],-47%
same,growth at 100 µM,[39],-2%
same,growth at 0.1 µM,[40],98%
